This is an account of results in article PMC12621043, “Un-LOK-ing a New Approach for Conformational Selective Targeting of STK10 (LOK)” (ACS Medicinal Chemistry Letters, 2025).

Test in all cases: DSF Tm panel
Format in all cases: binding
Details in all cases: 10 μM compound

The target in one test is T1, FLT1A (Homo sapiens, UniProt P17948).
T1 construct: purchased in-house DSF kinase panel (SGC-style construct names; the trailing letter is the construct ID)
T1 sequence (P17948 801-1158): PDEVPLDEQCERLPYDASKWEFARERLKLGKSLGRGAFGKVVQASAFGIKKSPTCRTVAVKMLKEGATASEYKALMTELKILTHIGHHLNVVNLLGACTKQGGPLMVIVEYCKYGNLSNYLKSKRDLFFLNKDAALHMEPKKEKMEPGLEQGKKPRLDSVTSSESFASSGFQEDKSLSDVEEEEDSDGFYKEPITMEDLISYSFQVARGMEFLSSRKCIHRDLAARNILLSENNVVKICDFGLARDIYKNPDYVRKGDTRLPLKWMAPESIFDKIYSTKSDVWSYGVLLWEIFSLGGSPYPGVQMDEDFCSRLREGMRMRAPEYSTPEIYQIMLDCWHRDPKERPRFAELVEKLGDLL

The target of the next test is T2, PHKG2A (Homo sapiens, UniProt P15735).
T2 construct: purchased in-house DSF kinase panel (SGC-style construct names; the trailing letter is the construct ID)
T2 sequence (P15735 6-293): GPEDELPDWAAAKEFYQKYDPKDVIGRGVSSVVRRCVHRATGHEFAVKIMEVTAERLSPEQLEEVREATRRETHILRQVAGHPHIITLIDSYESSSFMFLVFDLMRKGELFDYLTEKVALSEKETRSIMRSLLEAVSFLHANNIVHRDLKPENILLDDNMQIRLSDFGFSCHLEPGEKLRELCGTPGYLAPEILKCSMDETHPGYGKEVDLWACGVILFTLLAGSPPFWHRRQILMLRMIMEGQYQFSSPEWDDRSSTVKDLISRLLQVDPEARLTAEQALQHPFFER

Another test deals with T3, RIOK1A (Homo sapiens, UniProt Q9BRS2).
T3 construct: purchased in-house DSF kinase panel (SGC-style construct names; the trailing letter is the construct ID)
T3 sequence (Q9BRS2 143-494): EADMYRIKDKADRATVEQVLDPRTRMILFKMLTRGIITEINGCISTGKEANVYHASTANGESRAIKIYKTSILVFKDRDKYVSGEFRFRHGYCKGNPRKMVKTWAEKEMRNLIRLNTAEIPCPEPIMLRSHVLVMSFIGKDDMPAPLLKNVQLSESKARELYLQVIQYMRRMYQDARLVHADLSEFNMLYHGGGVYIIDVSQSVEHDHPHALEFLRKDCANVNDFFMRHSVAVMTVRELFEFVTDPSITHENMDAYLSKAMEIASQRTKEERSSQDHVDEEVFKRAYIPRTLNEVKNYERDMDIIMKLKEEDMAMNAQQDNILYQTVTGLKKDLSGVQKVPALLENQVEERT

The test system of another test is RPS6KA6A.
For another test, the target named is T4, HIPK2HSF (Homo sapiens, UniProt Q9H2X6).
T4 construct: purchased in-house DSF kinase panel (SGC-style construct names; the trailing letter is the construct ID)

The target of the next test is T5, NQO2A (Homo sapiens, UniProt P16083).
T5 construct: purchased in-house DSF kinase panel (SGC-style construct names; the trailing letter is the construct ID)
T5 sequence (P16083 1-231): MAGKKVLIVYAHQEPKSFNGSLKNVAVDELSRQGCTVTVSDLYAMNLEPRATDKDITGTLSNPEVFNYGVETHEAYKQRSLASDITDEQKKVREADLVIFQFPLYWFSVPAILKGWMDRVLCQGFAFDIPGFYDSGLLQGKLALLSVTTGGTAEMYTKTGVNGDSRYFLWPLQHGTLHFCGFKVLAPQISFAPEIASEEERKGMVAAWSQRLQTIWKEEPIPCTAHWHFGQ

T4 sequence (Q9H2X6 199-527): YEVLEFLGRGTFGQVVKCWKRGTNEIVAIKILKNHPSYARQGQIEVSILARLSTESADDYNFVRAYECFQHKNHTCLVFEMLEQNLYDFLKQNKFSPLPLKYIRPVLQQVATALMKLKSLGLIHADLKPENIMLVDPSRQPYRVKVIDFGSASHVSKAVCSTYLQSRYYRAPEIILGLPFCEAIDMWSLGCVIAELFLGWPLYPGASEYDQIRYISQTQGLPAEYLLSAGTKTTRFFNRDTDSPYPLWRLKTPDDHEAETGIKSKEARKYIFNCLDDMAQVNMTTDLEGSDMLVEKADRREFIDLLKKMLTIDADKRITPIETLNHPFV

Regarding `O=C(NCc1ccccc1)Nc1ccc2cc1OCCOCCNc1ccn3ncc-2c3n1` [compound 16], the values for the ΔTm at 10 µM at FLT1A, at PHKG2A and on RIOK1A were 4.7 °C, 1.3 °C and 0.1 °C, respectively. Moreover, in the test on RPS6KA6A, the “ΔTm RPS6KA6A” value is -1,2 °C.

Take `O=C(NCc1ccccc1Cl)Nc1ccc2cc1OCCOCCNc1ccn3ncc-2c3n1` [compound 17]: the ΔTm at 10 µM amounted to 2.1 °C at FLT1A, 0.6 °C at PHKG2A and 0.5 °C at RIOK1A. Moreover, the “ΔTm RPS6KA6A” value in the test on RPS6KA6A is -0,3 °C.

As for `O=C(NCc1cccc(Cl)c1)Nc1ccc2cc1OCCOCCNc1ccn3ncc-2c3n1` [compound 18], the ΔTm at 10 µM is 3.7 °C on FLT1A, 0.4 °C at PHKG2A and 1.4 °C on RIOK1A. For the same compound, the “ΔTm RPS6KA6A” value in the test with RPS6KA6A is -0,3 °C.

In the case of `O=C(NCc1ccc(Cl)cc1)Nc1ccc2cc1OCCOCCNc1ccn3ncc-2c3n1` [compound 19], the ΔTm at 10 µM amounted to 3.4 °C at FLT1A, 1.2 °C at PHKG2A and 1.1 °C on RIOK1A. Further, the “ΔTm RPS6KA6A” value in the test with RPS6KA6A is -0,2 °C.

Consider `O=C(NCc1ccc(Cl)cc1Cl)Nc1ccc2cc1OCCOCCNc1ccn3ncc-2c3n1` [compound 20], for which the ΔTm at 10 µM worked out at 1.4 °C on FLT1A, 0.8 °C at PHKG2A and 1.9 °C at RIOK1A. The “ΔTm RPS6KA6A” value with RPS6KA6A is 0,5 °C.

As for `O=C(NCc1ccc(Cl)cc1F)Nc1ccc2cc1OCCOCCNc1ccn3ncc-2c3n1` [compound 21], the ΔTm at 10 µM at FLT1A is 2.6 °C; at PHKG2A, 0.9 °C; on RIOK1A it was -0.1 °C. Also, the “ΔTm RPS6KA6A” value with RPS6KA6A was -0,7 °C.

Regarding `Cc1cc(Cl)ccc1CNC(=O)Nc1ccc2cc1OCCOCCNc1ccn3ncc-2c3n1` [compound 23], the ΔTm at 10 µM on FLT1A was 2 °C; at PHKG2A, 0.5 °C; on RIOK1A, 0.6 °C. The “ΔTm RPS6KA6A” value in the test with RPS6KA6A was -0,3 °C.

With `Cc1cc(Br)ccc1CNC(=O)Nc1ccc2cc1OCCOCCNc1ccn3ncc-2c3n1` [compound 24], the ΔTm at 10 µM on HIPK2HSF is 0.2 °C; on NQO2A, -1.9 °C.

For `Cc1ccc(F)cc1CNC(=O)Nc1ccc2cc1OCCOCCNc1ccn3ncc-2c3n1` [compound 26], the ΔTm at 10 µM on HIPK2HSF is 0.4 °C; on NQO2A it was -1.5 °C.

With `O=C(NCc1ccccc1C(F)(F)F)Nc1ccc2cc1OCCOCCNc1ccn3ncc-2c3n1` [compound 27], the ΔTm at 10 µM is 0.2 °C at HIPK2HSF and -4.1 °C at NQO2A.

As to `O=C(NCc1ccc(C(F)(F)F)cc1)Nc1ccc2cc1OCCOCCNc1ccn3ncc-2c3n1` [compound 28], the ΔTm at 10 µM on HIPK2HSF is 0.6 °C; on NQO2A, -2.7 °C.

For the compound `COc1ccccc1CNC(=O)Nc1ccc2cc1OCCOCCNc1ccn3ncc-2c3n1` [compound 29], the ΔTm at 10 µM at HIPK2HSF is 0.5 °C; on NQO2A it was -0.5 °C.

Turning to `COc1cccc(CNC(=O)Nc2ccc3cc2OCCOCCNc2ccn4ncc-3c4n2)c1` [compound 30], the ΔTm at 10 µM on HIPK2HSF was 0.4 °C; at NQO2A it was -0.5 °C.

Consider `COc1ccc(CNC(=O)Nc2ccc3cc2OCCOCCNc2ccn4ncc-3c4n2)cc1` [compound 31], for which the ΔTm at 10 µM was 0.5 °C on HIPK2HSF and -0.6 °C on NQO2A.

With `COc1ccc(CNC(=O)Nc2ccc3cc2OCCOCCNc2ccn4ncc-3c4n2)cc1F` [compound 32], the results for the ΔTm at 10 µM on HIPK2HSF and at NQO2A were 0.5 °C and -2.8 °C, respectively.

On to `COc1cc(CNC(=O)Nc2ccc3cc2OCCOCCNc2ccn4ncc-3c4n2)ccc1F` [compound 33], for which the ΔTm at 10 µM at HIPK2HSF was 0.5 °C; on NQO2A it was -1.5 °C.

In the case of `C[C@H](NC(=O)Nc1ccc2cc1OCCOCCNc1ccn3ncc-2c3n1)c1ccccc1` [compound 34], the figures for the ΔTm at 10 µM at HIPK2HSF and at NQO2A were 0.4 °C and -0.5 °C, respectively.

Consider `CN1CCN(C(=O)Nc2ccc3cc2OCCOCCNc2ccn4ncc-3c4n2)CC1` [compound 35], for which the ΔTm at 10 µM on FLT1A is 4.4 °C; on PHKG2A, -0.1 °C; at RIOK1A it was 1.2 °C. Moreover, the “ΔTm RPS6KA6A” value in the test with RPS6KA6A is -0,3 °C.
